Measurements reported in publication PMC7806715, “Discovery of small molecules targeting the tandem tudor domain of the epigenetic factor UHRF1 using fragment-based ligand discovery” (Scientific Reports, 2021).

Columns and labels:
UHRF1-TTD = target: T1, UHRF1-TTD (Homo sapiens, UniProt Q96T88); assay: Thermal shift assay (TSA) of TTD; format: binding; conditions: for ΔTm at 200 µM: fragment screen, His6-TTD, final compound concentration 200 µM, 300 mM NaCl, read-out: ThermoFluor (ΔTm), fragment screen; for ΔTm at 500 µM / TSA (ΔTm) at 500 μM: compound at 500 μM, untagged TTD, 150 mM NaCl, mean ± S.D., n=3
T1 construct: Using the isolated His6-TTD (aa 123–283) we performed a thermal shift assay; His6 (N, cleaved yes); made in house; host or cells: Rosetta (DE3) E. coli, pMCSG7
T1 sequence (Q96T88 123-283): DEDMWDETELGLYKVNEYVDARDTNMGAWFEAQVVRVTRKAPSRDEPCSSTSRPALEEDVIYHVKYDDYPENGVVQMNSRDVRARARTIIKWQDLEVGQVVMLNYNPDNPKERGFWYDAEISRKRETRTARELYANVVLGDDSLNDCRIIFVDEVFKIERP
Description: We used three different assays in parallel to screen a ~ 2300-fragment library to identify hits that bind to TTD or inhibit its activities. The first screening method was a direct binding assay, which generally serves as the basis for most fragment screening. Using the isolated His6-TTD (aa 123–283) we performed a thermal shift assay (TSA) to determine the change in melting temperature upon fragment binding. The change in protein melting temperature (ΔTm) caused by each fragment was calculated by comparison to the DMSO controls on the same plate.
The fragment screen was carried out on LightCycler 480 Multiwell Plates 384 (Roche). The TSA mix contains 0.15 mg/ml of His6-TTD, 10 × of SYPRO Orange dye (ThermoFisher) in the TSA buffer (50 mM sodium phosphate, pH = 7, 300 mM NaCl). During the screen, 5 µl of TSA mix was dispensed into each well, and 100 nl of chemical fragments stock (10 mM in DMSO) was added to each well by pintool using Tecan Freedom Evo liquid handler to make the final compound concentration 200 µM. After 1 h of incubation at room temperature, the increase of fluorescence at 580 nm (excitation 465 nm) during the 20–90 degree melting (0.04 °C/s) was measured by LightCycler 480 Instrument II (Roche). For the fragment screen, on seven of the library plates there were 32-wells of DMSO control, while there were 8-wells of DMSO control in the last plate. […] Using un-tagged TTD for TSA provide closer resemblance to the native state of TTD. The lower salt concentration (150 mM NaCl) also allowed better comparison across three different assays during the dose-dependent SAR studies as both AlphaScreen and TR-FRET assay also use buffers containing 150 mM NaCl.

N-UHRF1 vs. USP7-UBL1/2 = assay: AlphaScreen assay N-UHRF1 vs. USP7-UBL1/2 (other screen); format: biochemical; conditions: fragment screen
Description: (§1) F1957-0227 was identified as a hit in two other AlphaScreen assays (N-UHRF1 vs. USP7-UBL1/2 and UHRF1-SRA domain vs. DNMT1-RFTS domain) and in three TSAs against unrelated protein targets (USP7-UBL1/2, UHRF1-SRA domain, and DNMT1-RFTS domain); we concluded that F1957-0227 behaves as a pan-assay interference compound (PAINS)[53] and is thus not suitable for follow-up.

[1] = target: T2, UHRF1-SRA domain vs. DNMT1-RFTS domain (Homo sapiens, UniProt P26358+Q96T88); assay: AlphaScreen assay UHRF1-SRA domain vs. DNMT1-RFTS domain (other screen); format: biochemical; conditions: fragment screen
T2 construct: UHRF1-SRA domain vs. DNMT1-RFTS domain
Description: as §1

USP7-UBL1/2 = USP7-UBL1/2 (Homo sapiens, UniProt Q93009); assay: TSA against USP7-UBL1/2; format: binding; conditions: fragment screen
Description: as §1

DNMT1-RFTS domain = target: T3, DNMT1-RFTS domain (Homo sapiens, UniProt P26358); assay: TSA against DNMT1-RFTS domain; format: binding; conditions: fragment screen
T3 construct: unrelated protein targets (USP7-UBL1/2, UHRF1-SRA domain, and DNMT1-RFTS domain)
Description: as §1

UHRF1-SRA domain = target: T4, UHRF1-SRA domain (Homo sapiens, UniProt Q96T88); assay: TSA against UHRF1-SRA domain; format: binding; conditions: fragment screen
T4 construct: unrelated protein targets (USP7-UBL1/2, UHRF1-SRA domain, and DNMT1-RFTS domain)
T4 sequence (Q96T88 419-582 limits assumed): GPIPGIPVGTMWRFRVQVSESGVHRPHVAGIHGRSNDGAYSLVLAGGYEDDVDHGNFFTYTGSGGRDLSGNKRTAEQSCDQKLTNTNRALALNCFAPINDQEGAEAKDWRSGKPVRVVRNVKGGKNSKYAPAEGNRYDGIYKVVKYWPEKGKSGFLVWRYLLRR
Description: as §1

N-UHRF1 vs. C-UHRF1 = target: T5, N-UHRF1 vs. C-UHRF1 (Homo sapiens, UniProt Q96T88); assay: AlphaScreen assay: N-UHRF1 interaction with C-UHRF1 (TTD:PBR); format: biochemical; conditions: for inhibition of N-UHRF1:C-UHRF1 interaction by peptide (in words): peptide (1-20) at 50 µM (Fig. S1); for AlphaScreen (N-UHRF1 vs. C-UHRF1) EC50 / EC50: EC50 ± S.E.M., n=3, highest concentration tested 1 mM
T5 construct: biotinylated-AviTag-N-UHRF1 (containing UBL and TTD, aa 1–285); made in house; host or cells: Rosetta (DE3) E. coli; pMCSG51 (N-UHRF1), pMCSG7 (FLAG-C-UHRF1)
T5 sequence (Q96T88 1-285): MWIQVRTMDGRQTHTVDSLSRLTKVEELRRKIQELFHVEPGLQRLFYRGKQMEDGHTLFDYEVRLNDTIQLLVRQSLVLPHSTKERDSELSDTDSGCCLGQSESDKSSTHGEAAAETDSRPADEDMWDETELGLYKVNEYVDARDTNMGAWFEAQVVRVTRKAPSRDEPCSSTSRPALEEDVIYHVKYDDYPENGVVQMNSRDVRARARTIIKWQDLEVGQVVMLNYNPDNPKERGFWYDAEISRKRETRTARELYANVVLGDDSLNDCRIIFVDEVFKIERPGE
Description: We next turned our attention to screens that reported on functional effects of fragment binding to UHRF1-TTD. UHRF1 can assume two functionally distinct conformations that are favored by different intra-molecular interactions[15],[32]–[35]. UHRF1 assumes a ‘closed’ conformation with diminished E3 ligase activity when the TTD domain interacts with the internal PBR[32]–[35]. To identify compounds that block this internal TTD:PBR interaction, we developed an assay using AlphaScreen (Amplified Luminescent Proximity Homogeneous Assay, Perkin Elmer) technology that detects the interaction between biotinylated-AviTag-N-UHRF1 (containing UBL and TTD, aa 1–285) and FLAG-C-UHRF1 (containing SRA, RING E3 domains and PBR, aa 414–793) (Fig. 1A,C). […] The signal change in each well was calculated relative to DMSO controls on each plate.
The fragment screen was carried out on low volume 384-well white plates (Corning 4512) and the assay was performed at room temperature. First, 5 µl of AlphaScreen buffer (50 mM HEPES, pH = 6.5, 150 mM NaCl, 0.1% Triton X-100, 1 mM DTT) was dispensed by multidrop combi microplate dispenser (Thermo Scientific) and 300 nl of chemical fragment stock (10 mM in DMSO) was added to each well by pintool using Tecan Freedom Evo liquid handler. Next, 3 µl of AlphaScreen reagent mix containing 768 nM of Biotinylated-His-Avitag-N-UHRF1, 768 nM of FLAG-C-UHRF1, 40 µg/ml streptavidin donor beads, and 40 µg/ml Anti-FLAG conjugated acceptor beads (PerkinElmer) was added to each well by multidrop. The final concentration of FLAG-C-UHRF1 was 300 nM, Biotinylated-His-Avitag-N-UHRF1 was 300 nM, Donor/acceptor beads each was 15 µg/ml. In this assay, the biotinylated-AviTag-N-UHRF1 binds to streptavidin-coated donor beads while the FLAG-C-UHRF1 interacts with the anti-FLAG antibody-coated acceptor beads. The final compound concentration was 360 µM. After 1 h of incubation, the AlphaScreen signal of each plate was measured with a Tecan Infinite M1000 plate reader, which uses a high-power laser (680 nm, 750 mW) as the excitation light source for the donor beads and the AlphaScreen filter was used to detect the emission between 520 and 620 nm from the acceptor beads. For the dose-dependent assays for SAR, the final concentrations of N-UHRF1, C-UHRF1, donor, and acceptor beads were the same as fragment screen. The only differences were that the phosphate buffer was used (50 mM sodium phosphate, pH = 7, 150 mM NaCl, 1 mM DTT, and 0.1% Triton-X-100) and the final volume was 10 µL. For the fragment screen, on seven of the library plates there were 32-wells of DMSO control, while there were 8-wells of DMSO control in the last plate.

[2] = target: T6, His6-TTD (UHRF1 tandem Tudor domain) vs. H3K9me3 peptide (Homo sapiens, UniProt Q96T88); assay: TR-FRET assay: His6-TTD interaction with H3K9me3 peptide; format: biochemical; conditions: EC50 ± S.E.M., n=3; highest concentration tested 1 mM
T6 construct: Using the isolated His6-TTD (aa 123–283) we performed a thermal shift assay; made in house; host or cells: Rosetta (DE3) E. coli, pMCSG7
T6 sequence (Q96T88 123-283): T1 sequence (Q96T88 123-283)
Description: Finally, the fragment library was screened using a TR-FRET assay to find inhibitors that block the interaction of His6-TTD with H3K9me3 peptide. In this assay, an anti-His6-antibody labeled with Tb cryptate binds to His6-TTD while a streptavidin-d2 acceptor binds to a biotinylated histone H3K9me3 peptide. The binding between His6-TTD and H3K9me3 peptide was measured by the ratio of 665 nm fluorescence (from the d2 acceptor) to 620 nm fluorescence (from the Tb cryptate donor) (Fig. 1D).
The fragment screen was carried out on low volume 384-well white plates (Corning 4512) and the assay was performed at room temperature. […] After 1 h of incubation, the fluorescent signals at 665 nm and 620 nm of each plate were measured by the Tecan Infinite M1000 plate reader (excitation 340 nm, 60 µs lag time, and 500 µs integration time) and the TR-FRET signal was calculated by the ratio of 665 nm/620 nm fluorescent signal. For the fragment screen, on seven of the library plates there were 32-wells of DMSO control, while there were 8-wells of DMSO control in the last plate. […] The only difference was that the final concentration of His6-TTD-PHD was 200 nM, biotin-H3K9me3 peptide was 200 nM for the His6-TTD-PHD TR-FRET assay, while the final concentration of His6-UHRF1-FL was 200 nM and biotin-H3K9me3 peptide was 100 nM for the His6-UHRF1-FL TR-FRET assay. The buffer pH was 7.5 for the His6-TTD-PHD and His6-UHRF1-FL assays.

T3 sequence (P26358 400-533 limits assumed): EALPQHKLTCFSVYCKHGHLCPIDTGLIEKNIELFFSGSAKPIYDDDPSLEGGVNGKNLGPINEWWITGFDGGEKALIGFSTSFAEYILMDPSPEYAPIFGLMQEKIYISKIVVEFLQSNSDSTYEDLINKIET
T2 sequence (P26358 400-533 limits assumed, one chain of several): as the sequence (P26358 400-533 limits assumed) above
Sequence of USP7-UBL1/2 (Q93009 560-776 limits assumed): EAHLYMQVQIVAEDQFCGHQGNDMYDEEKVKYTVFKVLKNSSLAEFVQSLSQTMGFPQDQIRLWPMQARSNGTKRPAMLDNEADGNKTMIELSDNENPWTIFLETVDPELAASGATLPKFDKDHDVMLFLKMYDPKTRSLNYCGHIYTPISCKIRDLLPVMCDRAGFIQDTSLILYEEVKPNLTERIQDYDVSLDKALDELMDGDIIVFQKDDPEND

Nc1ncc(Br)c2cc[nH]c12 [Compound F1957-0227]
ΔTm at 200 µM (UHRF1-TTD): 2.58 °C
hit call in AlphaScreen N-UHRF1 vs. USP7-UBL1/2 (N-UHRF1 vs. USP7-UBL1/2): hit
hit call in AlphaScreen UHRF1-SRA domain vs. DNMT1-RFTS domain [1]: hit
hit call in TSA against USP7-UBL1/2 (USP7-UBL1/2): hit
hit call in TSA against DNMT1-RFTS domain (DNMT1-RFTS domain): hit
hit call in TSA against UHRF1-SRA domain (UHRF1-SRA domain): hit

H3K4me3 peptide: histone H3 (1-20) peptide trimethylated at Lys4, negative control [reference compound]
inhibition of N-UHRF1:C-UHRF1 interaction by peptide (in words) (N-UHRF1 vs. C-UHRF1): not

c1cnc2c(c1)CCCC2 [Compound 6, 5,6,7,8-tetra-hydro-quinoline]
EC50 [2]: > 500 µM
AlphaScreen (N-UHRF1 vs. C-UHRF1) EC50 (N-UHRF1 vs. C-UHRF1): 281.7 ± 227.7 µM
ΔTm at 500 µM (UHRF1-TTD): 0.21 ± 0.06 °C

H3K9me3 peptide: histone H3 (1–20) peptide trimethylated at Lys9, TTD ligand [reference compound]
inhibition of N-UHRF1:C-UHRF1 interaction by peptide (in words) (N-UHRF1 vs. C-UHRF1): could inhibit

Cc1cc(C)nc(N)c1 [Compound 12]
EC50 [2]: 51.9 ± 8.1 µM
EC50 (N-UHRF1 vs. C-UHRF1): 21.3 ± 3.5 µM
TSA (ΔTm) at 500 μM (UHRF1-TTD): 1.59 ± 0.06 °C

c1cnc2c(c1)CCCN2 [Compound 2]
EC50 [2]: 109 ± 18.2 µM
EC50 (N-UHRF1 vs. C-UHRF1): 164 ± 33 µM
TSA (ΔTm) at 500 μM (UHRF1-TTD): 0.75 ± 0.02 °C

c1cnc2c(c1)NCCN2 [Compound 7, 1,2,3,4-tetrahydropyrido[2,3-b]pyrazine]
EC50 [2]: > 500 µM
AlphaScreen (N-UHRF1 vs. C-UHRF1) EC50 (N-UHRF1 vs. C-UHRF1): 379.8 ± 176.0 µM
ΔTm at 500 µM (UHRF1-TTD): 0.19 ± 0.06 °C

Cc1cc(C)c2c(n1)NCCC2 [Compound F1957-0088]
ΔTm at 500 µM (UHRF1-TTD): 1.52 ± 0.09 °C
ΔTm at 200 µM (UHRF1-TTD): 1.74 °C

Cc1ccnc(N)c1 [Compound 8]
EC50 [2]: 238 ± 89.1 µM
EC50 (N-UHRF1 vs. C-UHRF1): 52.6 ± 6.9 µM
TSA (ΔTm) at 500 μM (UHRF1-TTD): 0.66 ± 0.09 °C

Cc1ccnc(Cl)c1 [Compound 9]
TR-FRET (TTD vs. H3K9me3) EC50 [2]: No inhibition
AlphaScreen (N-UHRF1 vs. C-UHRF1) EC50 (N-UHRF1 vs. C-UHRF1): No inhibition

Cc1c(Br)cnc2c1CCCN2 [Compound 3]
EC50 [2]: 58.5 ± 8.4 µM
EC50 (N-UHRF1 vs. C-UHRF1): 75.7 ± 14.4 µM
TSA (ΔTm) at 500 μM (UHRF1-TTD): 0.1 ± 0.06 °C

Cc1cc(C)nc(C)c1 [Compound 15]
EC50 [2]: 47.2 ± 4.9 µM
EC50 (N-UHRF1 vs. C-UHRF1): > 500 µM
TSA (ΔTm) at 500 μM (UHRF1-TTD): 1.11 ± 0.06 °C
